Measurements: patent US20120040955A1 (priority 2009, published 2012)
pIC50: −log10 of the molar value.

Columns and labels:
[1] = molecular target: T1, JAK2 (Homo sapiens, UniProt O60674); test: kinobeads assay (competition with affinity matrix in mixed Molt4/Ramos cell lysate, dot blot detection), JAK2; type: binding; details: activity level
T1 construct: endogenous in cells; host or cells: Mixed Molt4 / Ramos cell lysate (1:2)
Protocol: (§1) The compounds of the present invention as described in the previous examples were tested in a kinobeads assay as described for ZAP-70 (WO-A 2007/137867). Briefly, test compounds (at various concentrations) and the affinity matrix with the immobilized aminopyrido-pyrimidine ligand 24 were added to cell lysate aliquots and allowed to bind to the proteins in the lysate sample. After the incubation time the beads with captured proteins were separated from the lysate. Bound proteins were then eluted and the presence of, JAK2 and JAK3 was detected and quantified using specific antibodies in a dot blot procedure and the Odyssey infrared detection system. Dose response curves for individual kinases were generated and IC50 values calculated. Kinobeads assays for ZAP-70 (WO-A 2007/137867) and for kinase selectivity profiling (WO-A 2006/134056) have been previously described.
(§2) 5× DP buffer: 250 mM Tris-HCl pH 7.4, 25% Glycerol, 7.5 mM MgCl2, 750 mM NaCl, 5 mM Na3VO4; filter the 5× DP buffer through a 0.22 μm filter and store in aliquots at −80° C. The 5× DP buffer is diluted with H2O to 1× DP buffer containing 1 mM DTT and 25 mM NaF.
(§3) Stock solutions of test compounds were prepared in DMSO. In a 96 well plate 30 μl solution of diluted test compounds at 5 mM in DMSO were prepared. Starting with this solution a 1:3 dilution series (9 steps) was prepared. For control experiments (no test compound) a buffer containing 2% DMSO was used.
(§4) Molt4 cells (ATCC catalogue number CRL-1582) and Ramos cells (ATCC catalogue number CRL-1596) were grown in 1 litre Spinner flasks (Integra Biosciences, #182101) in suspension in RPMI 1640 medium (Invitrogen, #21875-034) supplemented with 10% Fetal Bovine Serum (Invitrogen) at a density between 0.15×10^6 and 1.2×10^6 cells/ml. Cells were harvested by centrifugation, washed once with 1× PBS buffer (Invitrogen, #14190-094) and cell pellets were frozen in liquid nitrogen and subsequently stored at −80° C. Cells were homogenized in a Potter S homogenizer in lysis buffer: 50 mM Tris-HCl, 0.8% NP40, 5% glycerol, 150 mM NaCl, 1.5 mM MgCl2, 25 mM NaF, 1 mM sodium vanadate, 1 mM DTT, pH 7.5. One complete EDTA-free tablet (protease inhibitor cocktail, Roche Diagnostics, 1873580) per 25 ml buffer was added. The material was dounced 10 times using a mechanized POTTER S, transferred to 50 ml falcon tubes, incubated for 30 minutes on ice and spun down for 10 min at 20,000 g at 4° C. (10,000 rpm in Sorvall SLA600, precooled). The supernatant was transferred to an ultracentrifuge (UZ)-polycarbonate tube (Beckmann, 355654) and spun for 1 hour at 100.000 g at 4° C. (33.500 rpm in Ti50.2, precooled). The supernatant was transferred again to a fresh 50 ml falcon tube, the protein concentration was determined by a Bradford assay (BioRad) and samples containing 50 mg of protein per aliquot were prepared. The samples were immediately used for experiments or frozen in liquid nitrogen and stored frozen at −80° C.
(§5) Cell lysate (approximately 50 mg protein per plate) was thawed in a water bath at room temperature and then kept on ice. To the thawed cell lysate 1× DP 0.8% NP40 buffer containing protease inhibitors (1 tablet for 25 ml buffer; EDTA-free protease inhibitor cocktail; Roche Diagnostics 1873580) was added in order to reach a final protein concentration of 5 mg/ml total protein. The diluted cell lysate was stored on ice. Mixed Molt4/Ramos lysate was prepared by combining one volume of Molt4 lysate and two volumes of Ramos lysate (ratio 1:2).
(§6) To a 96 well filter plate (Multiscreen HTS, BV Filter Plates, Millipore #MSBVN1250) were added per well: 100 μl affinity matrix (3% beads slurry), 3 μl of compound solution, and 50 μl of diluted lysate. Plates were sealed and incubated for three hours in a cold room on a plate shaker (Heidolph tiramax 1000) at 750 rpm. Afterwards the plate was washed twice with 230 μl washing buffer (1× DP 0.4% NP40). […]

[2] = molecular target: T2, JAK3 (Homo sapiens, UniProt P52333); test: kinobeads assay (competition with affinity matrix in mixed Molt4/Ramos cell lysate, dot blot detection), JAK3; type: binding; details: activity level
T2 construct: endogenous in cells; host or cells: Mixed Molt4 / Ramos cell lysate (1:2)
T2 sequence (P52333 1-1124): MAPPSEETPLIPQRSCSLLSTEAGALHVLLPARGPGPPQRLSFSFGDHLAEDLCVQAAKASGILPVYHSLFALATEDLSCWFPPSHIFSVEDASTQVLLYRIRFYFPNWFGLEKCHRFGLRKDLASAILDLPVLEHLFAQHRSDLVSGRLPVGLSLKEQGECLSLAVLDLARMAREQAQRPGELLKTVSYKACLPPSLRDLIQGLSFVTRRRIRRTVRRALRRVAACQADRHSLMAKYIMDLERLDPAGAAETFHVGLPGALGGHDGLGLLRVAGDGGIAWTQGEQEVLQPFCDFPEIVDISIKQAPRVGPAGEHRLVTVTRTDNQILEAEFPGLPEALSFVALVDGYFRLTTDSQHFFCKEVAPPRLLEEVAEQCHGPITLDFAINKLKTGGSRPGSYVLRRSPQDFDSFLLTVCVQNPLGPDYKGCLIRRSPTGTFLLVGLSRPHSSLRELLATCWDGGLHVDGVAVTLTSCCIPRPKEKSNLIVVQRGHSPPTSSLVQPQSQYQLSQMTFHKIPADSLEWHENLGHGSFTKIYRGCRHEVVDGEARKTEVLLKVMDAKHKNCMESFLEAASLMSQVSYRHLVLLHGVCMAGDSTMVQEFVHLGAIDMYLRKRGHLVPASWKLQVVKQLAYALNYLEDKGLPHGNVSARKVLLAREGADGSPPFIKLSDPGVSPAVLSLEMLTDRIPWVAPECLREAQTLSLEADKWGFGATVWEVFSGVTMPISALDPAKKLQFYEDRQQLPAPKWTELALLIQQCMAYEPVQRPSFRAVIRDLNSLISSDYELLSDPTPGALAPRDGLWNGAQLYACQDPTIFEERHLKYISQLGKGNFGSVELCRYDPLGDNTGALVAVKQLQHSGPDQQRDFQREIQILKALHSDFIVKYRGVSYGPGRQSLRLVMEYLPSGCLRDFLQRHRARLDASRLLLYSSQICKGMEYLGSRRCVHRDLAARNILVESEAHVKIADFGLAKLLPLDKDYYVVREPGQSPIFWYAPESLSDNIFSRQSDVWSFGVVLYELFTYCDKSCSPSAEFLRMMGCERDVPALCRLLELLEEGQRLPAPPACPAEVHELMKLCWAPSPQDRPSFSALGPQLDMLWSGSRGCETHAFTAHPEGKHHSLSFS
Protocol: as §1, §2, §3, §4, §5, §6

T1 sequence (O60674 whole entry): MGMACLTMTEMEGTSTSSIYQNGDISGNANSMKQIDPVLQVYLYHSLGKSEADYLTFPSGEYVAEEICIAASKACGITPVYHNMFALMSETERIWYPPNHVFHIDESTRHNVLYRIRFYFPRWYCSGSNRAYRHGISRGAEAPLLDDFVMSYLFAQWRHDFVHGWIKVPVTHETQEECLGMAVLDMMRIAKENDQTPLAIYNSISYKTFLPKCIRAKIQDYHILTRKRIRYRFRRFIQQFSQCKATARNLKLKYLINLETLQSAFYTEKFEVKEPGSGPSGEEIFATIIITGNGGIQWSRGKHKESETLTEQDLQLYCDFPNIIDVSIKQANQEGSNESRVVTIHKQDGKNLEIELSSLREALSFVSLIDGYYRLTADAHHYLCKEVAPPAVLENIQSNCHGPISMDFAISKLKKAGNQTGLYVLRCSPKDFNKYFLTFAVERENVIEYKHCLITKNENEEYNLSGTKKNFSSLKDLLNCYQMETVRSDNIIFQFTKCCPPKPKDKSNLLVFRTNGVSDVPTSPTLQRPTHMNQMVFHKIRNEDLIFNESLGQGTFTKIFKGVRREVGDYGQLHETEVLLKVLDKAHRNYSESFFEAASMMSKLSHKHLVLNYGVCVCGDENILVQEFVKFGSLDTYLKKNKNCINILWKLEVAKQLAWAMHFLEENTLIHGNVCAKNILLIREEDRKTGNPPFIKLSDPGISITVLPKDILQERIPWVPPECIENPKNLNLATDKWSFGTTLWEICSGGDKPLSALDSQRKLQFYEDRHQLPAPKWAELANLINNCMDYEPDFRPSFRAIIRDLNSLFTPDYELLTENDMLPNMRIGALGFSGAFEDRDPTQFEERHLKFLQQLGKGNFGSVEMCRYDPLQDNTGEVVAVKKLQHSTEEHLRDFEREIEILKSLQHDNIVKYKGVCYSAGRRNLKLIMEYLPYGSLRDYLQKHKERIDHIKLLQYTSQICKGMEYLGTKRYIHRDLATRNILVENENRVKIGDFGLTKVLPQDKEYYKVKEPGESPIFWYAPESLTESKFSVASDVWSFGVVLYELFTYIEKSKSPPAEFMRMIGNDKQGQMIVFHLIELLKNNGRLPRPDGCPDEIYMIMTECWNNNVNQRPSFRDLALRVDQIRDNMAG

pIC50 [1]	pIC50 [2]	SMILES
5.00 to 6.00	> 7.00	CNC(=O)c1cccc(Nc2ncc(Cl)c(Nc3ccccc3NS(C)(=O)=O)n2)c1F [Example 56, 3-(5-chloro-4-(2-(methylsulfonamido)phenylamino)pyrimidin-2-ylamino)-2-fluoro-N-methylbenzamide]
	> 7.00	CS(=O)(=O)Nc1ccccc1Nc1nc(Nc2cc(C(=O)N3CCC3)ccc2F)ncc1Cl [Example 20, N-(2-(2-(5-(azetidine-1-carbonyl-2-fluorophenylamino))-5-chloropyrimidin-4-ylamino)phenyl)methanesulfonamide]
5.00 to 6.00	> 7.00	CCNC(=O)c1ccc(Nc2ncc(Cl)c(Nc3ccccc3NS(C)(=O)=O)n2)c(F)c1 [Example 61, 4-((5-chloro-4-((2-(methylsulfonamido)phenyl)amino)pyrimidin-2-yl)amino)-N-ethyl-3-fluorobenzamide]
< 5.00	> 7.00	CS(=O)(=O)Nc1c(F)cccc1Nc1nc(Nc2cc(-n3cnnn3)ccc2F)ncc1F [Example 3, N-(2-fluoro-6-(5-fluoro-2-(2-fluoro-5-(1H-tetrazol-1-yl)phenylamino)pyrimidin-4-ylamino)phenyl)methanesulfonamide]
6.00 to 7.00	> 7.00	CCNC(=O)c1ccc(F)c(Nc2ncc(Cl)c(Nc3ccccc3NS(C)(=O)=O)n2)c1 [Example 14]
< 5.00	> 7.00	CS(=O)(=O)Nc1ccccc1Nc1nc(Nc2cc(C(=O)N3CCOCC3)ccc2F)ncc1Cl [Example 54, N-(2-(5-chloro-2-(2-fluoro-5-(morpholine-4-carbonyl)phenylamino)pyrimidin-4-ylamino)phenyl)methanesulfonamide]
< 5.00	> 7.00	CCNC(=O)c1ccc(Nc2ncc(Cl)c(Nc3cccc(F)c3NS(C)(=O)=O)n2)c(F)c1 [Example 60, 4-((5-chloro-4-((3-fluoro-2-(methylsulfonamido)phenyl)amino)pyrimidin-2-yl)amino)-N-ethyl-3-fluorobenzamide]
< 5.00	> 7.00	CCS(=O)(=O)Nc1ccccc1Nc1nc(Nc2cc(C(=O)NC3CC3)ccc2F)ncc1Cl [Example 42, 3-(5-chloro-4-(2-(ethylsulfonamido)phenylamino)pyrimidin-2-ylamino)-N-cyclopropyl-4-fluorobenzamide]
5.00 to 6.00	> 7.00	CS(=O)(=O)Nc1ccccc1Nc1nc(Nc2cc(C(=O)NCCO)ccc2F)ncc1Cl [Example 22, 3-(5-chloro-4-(2-(methylsulfonamido)phenylamino)pyrimidin-2-ylamino)-4-fluoro-N-(2-hydroxyethyl)benzamide]
	> 7.00	CC(C)NC(=O)c1ccc(F)c(Nc2ncc(Cl)c(Nc3ccccc3NS(C)(=O)=O)n2)c1 [Example 16]
< 5.00	> 7.00	CS(=O)(=O)Nc1ccccc1Nc1nc(Nc2cc(C#N)ccc2F)ncc1Cl [Example 28, N-(2-(5-chloro-2-(5-cyano-2-fluorophenylamino)pyrimidin-4-ylamino)phenyl)methanesulfonamide]
6.00 to 7.00	> 7.00	CN(c1ccccc1Nc1nc(Nc2cc(-n3cnnn3)ccc2F)ncc1F)S(C)(=O)=O [Example 13, N-(2-(5-fluoro-2-(2-fluoro-5-(1H-tetrazol-1-yl)phenylamino)pyrimidin-4-ylamino)phenyl)-N-methylmethanesulfonamide]
6.00 to 7.00	> 7.00	Cc1cccc(Nc2nc(Nc3cc(-n4cnnn4)ccc3F)ncc2Cl)c1NS(C)(=O)=O [Example 9, N-(2-(5-chloro-2-(2-fluoro-5-(1H-tetrazol-1-yl)phenylamino)pyrimidin-4-ylamino)-6-methylphenyl)methanesulfonamide]
< 5.00	> 7.00	CS(=O)(=O)Nc1ccccc1Nc1nc(Nc2cc(F)c(C(=O)NC3CC3)cc2F)ncc1Cl [Example 57, 4-((5-chloro-4-((2-(methylsulfonamido)phenyl)amino)pyrimidin-2-yl)amino)-N-cyclopropyl-2,5-difluorobenzamide]
5.00 to 6.00	> 7.00	CS(=O)(=O)Nc1ccccc1Nc1nc(Nc2cc(-n3cnnn3)ccc2F)ncc1F [Example 1, N-(2-(5-fluoro-2-(2-fluoro-5-(1H-tetrazol-1-yl)phenylamino)pyrimidin-4-ylamino)phenyl)methanesulfonamide]
5.00 to 6.00	> 7.00	CNC(=O)c1ccc(F)c(Nc2ncc(Cl)c(Nc3ccccc3NS(C)(=O)=O)n2)c1 [Example 21, 3-(5-chloro-4-(2-(methylsulfonamido)phenylamino)pyrimidin-2-ylamino)-4-fluoro-N-methybenzamide]
< 5.00	6.00 to 7.00	CNC(=O)c1ccc(F)c(Nc2ncc(F)c(Nc3ccccc3NS(C)(=O)=O)n2)c1 [Example 30, 3-(5-fluoro-4-(2-(methylsulfonamido)phenylamino)pyrimidin-2-ylamino)-4-fluoro-N-methybenzamide]
5.00 to 6.00	> 7.00	COc1ccc(Nc2nc(Nc3cc(-n4cnnn4)ccc3F)ncc2F)c(NS(C)(=O)=O)c1 [Example 5, N-(2-(5-fluoro-2-(2-fluoro-5-(1H-tetrazol-1-yl)phenylamino)pyrimidin-4-ylamino)-5-methoxyphenyl)methanesulfonamide]
	> 7.00	CS(=O)(=O)Nc1ccccc1Nc1nc(Nc2cc(C(=O)NC3CC3)ccc2F)ncc1Cl [Example 15]
	6.00 to 7.00	CCN(CC)C(=O)c1ccc(F)c(Nc2ncc(Cl)c(Nc3ccccc3NS(C)(=O)=O)n2)c1 [Example 19, 3-(5-chloro-4-(2-(methylsulfonamido)phenylamino)pyrimidin-2-ylamino)-N,N-diethyl-4-fluorobenzamide]
